Drawing on patent publication US20120270237A9, “METHODS FOR THE IDENTIFICATION OF KINASE INTERACTING MOLECULES AND FOR THE PURIFICATION OF KINASE PROTEINS” (Cellzone AG, priority 2009, published 2012), this text covers inhibition and Competition % for one molecule.

SMILES strings stand for the structures.

What all share (experiment): Kinobeads competition binding, L-363 cell lysate
Parameters in all cases: endogenous in cells
What all share (conditions): 10 μM free compound, L-363 lysate

One assay deals with MSK2 (Homo sapiens, UniProt O75676). The method, then:
(§1) To one aliquot of cell lysate 10 μM of the free compound (FIG. 3, CZC31326) was added and allowed to bind to proteins in the lysate. Then the affinity matrix with the immobilized compound was added to capture proteins that were not interacting with the previously added free compound. Beads were separated from the lysate and bead bound proteins were eluted in SDS sample buffer and subsequently separated by SDS-Polyacrylamide gel electrophoresis (FIG. 8). Suitable gel bands were cut out and subjected to in-gel proteolytic digestion with trypsin. The second lysate aliquot was processed identically, however no free compound was added (DMSO solvent control). Peptides originating from samples 1 and 2 were labeled with iTRAQ reagents (iTRAQ 114 and iTRAQ 117) and the combined samples were analyzed with a nano-flow liquid chromatography system coupled online to a tandem mass spectrometer (LC-MS/MS) experiment followed by iTRAQ reporter ion quantification in the MS/MS spectra as described in Example 2.
(§2) For this experiment the human plasma cell leukaemia line L-363 was used (German Collection of Microorganisms and Cell Cultures, DSMZ number ACC49, Braunschweig, Germany). Cells were treated for three hours with 20 μM of the proteasome inhibitor MG132 (Z-Leu-Leu-Leu-al, Sigma C2211) prior to cell harvesting.

The target of a further assay is AMPKa1 (Homo sapiens, UniProt Q13131). The protocol:
as §1, §2

The target of a further assay is T1, MAP3K2 (Homo sapiens, UniProt Q9Y2U5).
T1 sequence (Q9Y2U5 1-619): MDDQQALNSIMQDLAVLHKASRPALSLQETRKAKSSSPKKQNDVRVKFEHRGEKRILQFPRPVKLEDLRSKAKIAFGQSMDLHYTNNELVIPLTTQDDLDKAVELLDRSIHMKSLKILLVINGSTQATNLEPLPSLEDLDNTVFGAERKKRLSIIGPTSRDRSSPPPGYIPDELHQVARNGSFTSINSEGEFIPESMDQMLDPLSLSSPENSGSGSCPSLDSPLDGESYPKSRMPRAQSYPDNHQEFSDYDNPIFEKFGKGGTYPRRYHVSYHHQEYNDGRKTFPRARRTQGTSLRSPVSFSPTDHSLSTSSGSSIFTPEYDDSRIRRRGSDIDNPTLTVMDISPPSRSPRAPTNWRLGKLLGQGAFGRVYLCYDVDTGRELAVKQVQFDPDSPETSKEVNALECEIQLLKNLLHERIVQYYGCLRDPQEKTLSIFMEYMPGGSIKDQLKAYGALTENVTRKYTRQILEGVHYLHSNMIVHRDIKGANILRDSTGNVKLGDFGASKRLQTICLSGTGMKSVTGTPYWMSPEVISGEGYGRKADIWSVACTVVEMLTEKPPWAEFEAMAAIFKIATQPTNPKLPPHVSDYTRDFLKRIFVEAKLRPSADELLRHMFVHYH
The method, then: as §1, §2

The target of a further assay is YES (Homo sapiens, UniProt P07947). The method, then: as §1, §2
Another assay addresses LOK (Homo sapiens, UniProt O94804). The method, then: as §1, §2
Another assay concerns the target DNAPK (Homo sapiens, UniProt P78527). The protocol: as §1, §2
The target in the next assay is Erk1 (Homo sapiens, UniProt P27361). The protocol: as §1, §2
For the next assay, the target named is ARG (Homo sapiens, UniProt P42684). The protocol:
as §1, §2

The next assay has as its target MPSK1 (Homo sapiens, UniProt O75716). The protocol:
as §1, §2

The target in another assay is MARK3 (Homo sapiens, UniProt P27448). The method, then:
as §1, §2

In another assay the target is Wee1 (Homo sapiens, UniProt P30291). The method, then:
as §1, §2

AMPKa1, sequence (Q13131 whole entry): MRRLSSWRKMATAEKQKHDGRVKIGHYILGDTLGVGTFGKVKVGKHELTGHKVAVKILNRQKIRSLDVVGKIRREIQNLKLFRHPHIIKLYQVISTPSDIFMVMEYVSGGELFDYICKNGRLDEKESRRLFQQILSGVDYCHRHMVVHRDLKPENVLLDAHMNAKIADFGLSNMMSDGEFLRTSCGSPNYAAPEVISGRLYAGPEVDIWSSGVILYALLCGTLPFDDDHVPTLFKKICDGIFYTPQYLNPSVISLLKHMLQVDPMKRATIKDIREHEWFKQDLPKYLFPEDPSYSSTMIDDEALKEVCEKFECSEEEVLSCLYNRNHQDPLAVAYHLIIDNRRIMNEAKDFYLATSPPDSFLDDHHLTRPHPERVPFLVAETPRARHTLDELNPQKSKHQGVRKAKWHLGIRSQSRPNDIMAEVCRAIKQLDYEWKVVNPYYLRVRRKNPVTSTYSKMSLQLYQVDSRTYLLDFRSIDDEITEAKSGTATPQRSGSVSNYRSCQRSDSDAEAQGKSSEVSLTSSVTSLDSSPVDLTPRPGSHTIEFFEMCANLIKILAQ
AMPKa1, sequence (Q9Y478 2-270 partner limits assumed): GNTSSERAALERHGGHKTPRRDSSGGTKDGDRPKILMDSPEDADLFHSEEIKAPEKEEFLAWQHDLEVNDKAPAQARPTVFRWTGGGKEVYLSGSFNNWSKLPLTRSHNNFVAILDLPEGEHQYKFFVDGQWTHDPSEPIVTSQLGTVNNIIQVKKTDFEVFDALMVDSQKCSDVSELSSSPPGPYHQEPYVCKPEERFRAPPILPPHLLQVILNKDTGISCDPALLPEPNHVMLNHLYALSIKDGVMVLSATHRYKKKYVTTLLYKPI
AMPKa1, sequence (P54619 whole entry partner): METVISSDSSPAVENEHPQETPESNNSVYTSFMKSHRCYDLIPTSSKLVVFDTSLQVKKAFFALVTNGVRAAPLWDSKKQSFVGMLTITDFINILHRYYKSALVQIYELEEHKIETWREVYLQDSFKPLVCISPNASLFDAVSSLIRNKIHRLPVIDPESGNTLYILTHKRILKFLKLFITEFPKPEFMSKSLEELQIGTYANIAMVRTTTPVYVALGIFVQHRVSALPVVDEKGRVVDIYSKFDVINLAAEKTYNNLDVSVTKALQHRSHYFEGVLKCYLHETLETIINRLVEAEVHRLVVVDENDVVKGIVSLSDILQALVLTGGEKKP
MPSK1, sequence (O75716 whole entry): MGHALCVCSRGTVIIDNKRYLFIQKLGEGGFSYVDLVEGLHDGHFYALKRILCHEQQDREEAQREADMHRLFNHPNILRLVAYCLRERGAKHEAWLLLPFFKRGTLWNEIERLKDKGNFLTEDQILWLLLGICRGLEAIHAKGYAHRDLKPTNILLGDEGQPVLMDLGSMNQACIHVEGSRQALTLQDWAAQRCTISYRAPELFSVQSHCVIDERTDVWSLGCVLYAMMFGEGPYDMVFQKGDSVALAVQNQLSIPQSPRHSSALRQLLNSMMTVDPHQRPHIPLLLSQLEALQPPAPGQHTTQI
ARG, sequence (P42684 whole entry): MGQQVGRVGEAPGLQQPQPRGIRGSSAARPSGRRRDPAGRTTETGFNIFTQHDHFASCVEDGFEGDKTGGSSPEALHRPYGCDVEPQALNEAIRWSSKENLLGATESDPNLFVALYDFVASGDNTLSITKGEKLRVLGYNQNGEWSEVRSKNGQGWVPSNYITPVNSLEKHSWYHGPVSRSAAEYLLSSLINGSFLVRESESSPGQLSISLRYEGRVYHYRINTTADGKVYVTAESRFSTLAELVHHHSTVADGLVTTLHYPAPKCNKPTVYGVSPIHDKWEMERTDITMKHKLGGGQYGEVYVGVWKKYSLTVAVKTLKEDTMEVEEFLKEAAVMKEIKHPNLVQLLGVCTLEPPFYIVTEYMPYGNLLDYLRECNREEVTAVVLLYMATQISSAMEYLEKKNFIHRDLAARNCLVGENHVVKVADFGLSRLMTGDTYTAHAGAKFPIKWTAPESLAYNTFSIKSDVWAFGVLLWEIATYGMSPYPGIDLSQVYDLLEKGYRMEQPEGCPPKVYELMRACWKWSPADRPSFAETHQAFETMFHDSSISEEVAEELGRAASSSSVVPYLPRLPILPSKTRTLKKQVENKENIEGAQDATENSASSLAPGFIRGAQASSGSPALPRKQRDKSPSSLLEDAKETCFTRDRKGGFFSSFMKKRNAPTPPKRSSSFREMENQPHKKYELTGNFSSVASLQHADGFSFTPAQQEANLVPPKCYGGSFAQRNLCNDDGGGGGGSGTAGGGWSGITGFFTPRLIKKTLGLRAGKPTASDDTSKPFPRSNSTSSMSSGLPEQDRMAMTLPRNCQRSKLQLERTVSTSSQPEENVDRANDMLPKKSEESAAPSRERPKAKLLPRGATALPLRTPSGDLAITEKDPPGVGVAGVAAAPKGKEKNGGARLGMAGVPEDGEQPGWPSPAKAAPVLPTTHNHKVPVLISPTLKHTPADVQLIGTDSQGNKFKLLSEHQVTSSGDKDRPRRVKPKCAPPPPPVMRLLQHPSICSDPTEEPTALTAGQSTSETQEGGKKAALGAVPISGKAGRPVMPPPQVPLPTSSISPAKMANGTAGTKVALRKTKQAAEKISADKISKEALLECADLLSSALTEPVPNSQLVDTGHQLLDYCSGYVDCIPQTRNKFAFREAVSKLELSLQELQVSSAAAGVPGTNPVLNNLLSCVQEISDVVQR
MARK3, sequence (P27448 whole entry): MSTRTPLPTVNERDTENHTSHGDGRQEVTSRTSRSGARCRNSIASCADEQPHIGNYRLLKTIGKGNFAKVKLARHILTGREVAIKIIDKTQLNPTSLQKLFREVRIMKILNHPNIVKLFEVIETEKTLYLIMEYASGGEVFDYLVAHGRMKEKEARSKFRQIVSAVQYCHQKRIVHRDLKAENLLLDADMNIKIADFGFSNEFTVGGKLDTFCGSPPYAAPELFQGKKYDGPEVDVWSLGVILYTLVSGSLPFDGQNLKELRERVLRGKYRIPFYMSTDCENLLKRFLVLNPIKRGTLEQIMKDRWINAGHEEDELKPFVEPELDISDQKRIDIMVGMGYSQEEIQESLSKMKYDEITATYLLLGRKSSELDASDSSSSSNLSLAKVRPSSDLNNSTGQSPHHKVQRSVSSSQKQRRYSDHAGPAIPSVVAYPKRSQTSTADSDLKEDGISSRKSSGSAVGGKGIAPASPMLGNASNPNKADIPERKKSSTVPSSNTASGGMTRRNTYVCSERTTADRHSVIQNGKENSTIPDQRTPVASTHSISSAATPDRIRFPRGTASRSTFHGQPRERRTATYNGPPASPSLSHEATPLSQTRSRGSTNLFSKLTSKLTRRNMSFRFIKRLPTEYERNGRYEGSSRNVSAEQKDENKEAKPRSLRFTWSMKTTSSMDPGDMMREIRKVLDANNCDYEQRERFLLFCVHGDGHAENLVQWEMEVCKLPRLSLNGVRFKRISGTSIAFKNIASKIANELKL
LOK, sequence (O94804 whole entry): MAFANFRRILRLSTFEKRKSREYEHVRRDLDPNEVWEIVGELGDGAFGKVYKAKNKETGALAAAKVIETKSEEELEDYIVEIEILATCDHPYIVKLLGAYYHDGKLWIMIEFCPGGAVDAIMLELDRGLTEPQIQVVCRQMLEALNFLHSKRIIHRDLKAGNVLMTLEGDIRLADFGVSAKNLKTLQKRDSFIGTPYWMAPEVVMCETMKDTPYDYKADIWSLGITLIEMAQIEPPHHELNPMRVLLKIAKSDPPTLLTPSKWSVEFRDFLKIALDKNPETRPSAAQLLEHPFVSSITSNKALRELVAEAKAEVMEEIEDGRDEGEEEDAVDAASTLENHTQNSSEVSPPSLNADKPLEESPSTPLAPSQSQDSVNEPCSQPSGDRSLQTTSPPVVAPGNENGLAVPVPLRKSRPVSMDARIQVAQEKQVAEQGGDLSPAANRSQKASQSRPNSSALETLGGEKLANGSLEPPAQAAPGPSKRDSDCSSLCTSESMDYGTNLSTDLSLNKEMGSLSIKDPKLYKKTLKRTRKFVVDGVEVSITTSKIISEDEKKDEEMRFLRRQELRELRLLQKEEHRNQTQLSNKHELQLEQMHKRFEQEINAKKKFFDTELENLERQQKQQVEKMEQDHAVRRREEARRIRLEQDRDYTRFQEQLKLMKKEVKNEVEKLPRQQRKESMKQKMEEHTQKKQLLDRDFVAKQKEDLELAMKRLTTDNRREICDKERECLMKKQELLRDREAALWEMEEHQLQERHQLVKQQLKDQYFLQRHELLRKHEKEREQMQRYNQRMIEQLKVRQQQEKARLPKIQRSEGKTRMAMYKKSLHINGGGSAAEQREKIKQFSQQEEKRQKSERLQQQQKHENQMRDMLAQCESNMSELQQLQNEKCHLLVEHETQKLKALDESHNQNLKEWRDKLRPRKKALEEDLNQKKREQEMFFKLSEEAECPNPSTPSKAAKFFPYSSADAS
Wee1, sequence (P30291 whole entry): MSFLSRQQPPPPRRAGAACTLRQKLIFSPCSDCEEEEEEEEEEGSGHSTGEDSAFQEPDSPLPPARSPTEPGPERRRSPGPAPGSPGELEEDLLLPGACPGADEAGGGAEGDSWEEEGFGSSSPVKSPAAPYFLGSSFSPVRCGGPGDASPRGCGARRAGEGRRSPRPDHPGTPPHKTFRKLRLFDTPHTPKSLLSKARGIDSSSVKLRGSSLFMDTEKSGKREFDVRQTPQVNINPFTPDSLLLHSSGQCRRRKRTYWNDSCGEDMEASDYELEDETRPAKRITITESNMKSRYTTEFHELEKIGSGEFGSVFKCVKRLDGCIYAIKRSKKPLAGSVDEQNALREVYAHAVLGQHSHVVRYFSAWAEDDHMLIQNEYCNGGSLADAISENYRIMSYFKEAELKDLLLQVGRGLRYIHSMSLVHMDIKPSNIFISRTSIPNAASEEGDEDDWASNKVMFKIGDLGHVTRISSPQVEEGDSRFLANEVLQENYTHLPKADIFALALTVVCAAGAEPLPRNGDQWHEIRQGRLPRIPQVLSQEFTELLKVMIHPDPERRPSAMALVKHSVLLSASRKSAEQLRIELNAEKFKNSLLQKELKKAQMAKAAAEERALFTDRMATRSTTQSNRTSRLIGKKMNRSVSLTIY

Turning to `CS(=O)(=O)Nc1ccccc1Nc1nc(Nc2cccc(OCCN)c2)ncc1Cl` [CZC31326, N-(2-(2-(3-(2-aminoethoxy)phenylamino)-5-chloropyrimidin-4-ylamino)phenyl)methanesulfonamide], the inhibition (in general, how much of the control response was suppressed) at 10 µM at MSK2 came to 94.2%; on AMPKa1 it was 97.7%; at MAP3K2, 96%; at YES, 89.6%; on DNAPK, 84%; on Erk1, 83.2%. In addition, the inhibition at 10 µM on ARG was determined as 95.8%; on MPSK1, 93.3%; at MARK3 it was 97%; on Wee1, 96.4%. This molecule also came in with a Competition % at LOK of 86.9%.
